From patent US20240425512A1, “NITROGEN-CONTAINING HETEROCYCLIC COMPOUND, PHARMACEUTICAL COMPOSITION THEREOF AND APPLICATION THEREOF” (280 Bio, Inc., priority 2023, published 2024)
pIC50: −log10 of the molar value. Like-named read-outs stand apart in the source and are kept apart here.

Tests used:
[1] = tested on: LS513 colon cancer cell with KRAS G12D mutation; test: Proliferation inhibition on RAS cell lines measured by CTG, LS513; assay type: cell-based; conditions: LS513 cells, incubated for 6 days, read-out: IC50 (LS513^f)
Excerpt: NCI-H358 is a human non-small cell lung cancer cell line with KRAS G12C mutation; AGS is a gastric cancer cell line with KRAS G12D mutation; SW620 is a colon cancer cell with KRAS G12V mutation; NCI-H460 is a non-small cell lung cancer cell with KRAS Q61H mutation; MKN1 is a wild-type gastric cancer cell with KRAS-amplified; LS513 is a colon cancer cell with KRAS G12D mutation; LoVo is a colon cancer cell with KRAS G13D mutation; NCI-H441 is a lung cancer cell with KRAS G12V mutation, and Capan-2 is a pancreatic cancer cell with KRAS G12V mutation.
(§1) The proliferation inhibitory effect of the compounds on various mutations was evaluated by determining the proliferation inhibitory activity of the compounds on these cell lines.
(§2) The assay was conducted on either 384-well plates or 96-well plates. The procedures are as follows:
(§3) The cell suspensions were added to 384- or 96-well plates (384-well plate: 50 μL; 96-well plate: 100 μL) except for peripheral wells. The plates were placed in a carbon dioxide incubator overnight. NCI-H358, AGS, NCI-H460, MKN-1, LS513, LoVo, and NCI-H441 were placed in a 5%, 370 carbon dioxide incubator overnight, and SW620 was placed in a 0%, 370 carbon dioxide incubator overnight. The HPD300 micro-dosing instrument was used to add the corresponding concentration of compound to each well (9-10 concentration gradients of compound were obtained by 3-fold dilution). Cell plates were incubated in a carbon dioxide incubator for 5-6 days. NCI-H358, AGS, NCI-H460 and MKN-1 were incubated at 5%, 37° incubator and SW620 was incubated at 0%, 370 incubator. On the day of plate measurement, the 384- or 96-well plates were first equilibrated at room temperature for 10-30 min, then CellTiter Glo reagent (384-well plate: 25 μL; 96-well plate: 100 μL) was added to the 384- or 96-well plate, shaken for 10 min away from light, and incubated for 10 min. The plates were placed into Victor NIVO or ENVIDION reader plates, and XLFit was utilized to plot the pharmacodynamic inhibition curve and calculate the IC50 value. “IC50>10 μM” is denoted by “*”, “10 μM≥IC50≥1 μM” is denoted by “**”, and “1 μM≥IC50>100 nM” is denoted by “***”, “IC50<100 nM” is denoted by “****”

[2] = tested on: GP2D cells; test: Proliferation inhibition on RAS cell lines measured by CTG, GP2D; assay type: cell-based; conditions: CellTiter Glo
Description: as §1, §2, §3

[3] = Homo sapiens, LS-513, 144 h, Table 1, CellTiter Glo
[4] = Homo sapiens, LS-513, 144 h, Table 2, CellTiter Glo
[5] = 144 h, Table 2, incubated for 6 days, read-out: IC50 (GP2D^j)

SMILES	pIC50 [1, 4]	further results
C#Cc1c(F)ccc2cc(O)cc(-c3ncc4c(N5CCCCCN5C(=O)OC(C)(C)C)nc(OC[C@@]56CCCN5C[C@H](F)C6)nc4c3F)c12 [Compound 12]		pIC50 [1, 3]: > 7.00
C#Cc1c(F)ccc2cc(O)cc(-c3ncc4c(N5CCCCCN5)nc(OCC5(CN(C)C)CC5)nc4c3F)c12 [Compound 13]		pIC50 ([1]; Table 1, CellTiter Glo): > 7.00
C#Cc1c(F)ccc2cc(O)cc(-c3ncc4c(N5CCCCCN5C(=O)OC(C)(C)C)nc(OCC5(CN(C)C)CC5)nc4c3F)c12 [Compound 14]		pIC50 [1, 3]: 6.00 to 7.00
C#Cc1c(F)ccc2cc(O)cc(-c3ncc4c(N5CCCCN5)nc(OC[C@@]56CCCN5C[C@H](F)C6)nc4c3F)c12 [Compound 16]		pIC50 ([1]; Homo sapiens, LS-513, 144 h, Table 1, numeric value): 7.93; pIC50 [1, 3]: > 7.00
C#Cc1c(F)ccc2cc(O)cc(-c3ncc4c(N5CCCCCN5C(=O)OCC)nc(OC[C@@]56CCCN5C[C@H](F)C6)nc4c3F)c12 [Compound 20]	6.00 to 7.00	
C#Cc1c(F)ccc2cc(O)cc(-c3ncc4c(N5CCCCCN5)nc(OCC56CCCN5C/C(=C/F)C6)nc4c3F)c12 (stereo not drawn) [Compound 21]		pIC50 [1, 3]: > 7.00
C#Cc1c(F)ccc2cc(O)cc(-c3ncc4c(N5CCCCCN5)nc(OCC56CCCN5CC(=C(F)F)C6)nc4c3F)c12 (stereo not drawn) [Compound 22]		pIC50 [1, 3]: > 7.00
C#Cc1c(F)ccc2cc(O)cc(-c3ncc4c(N5CCNCCN5)nc(OC[C@@]56CCCN5C[C@H](F)C6)nc4c3F)c12 [Compound 40]	5.00 to 6.00	
N#Cc1c(N)sc2c(F)ccc(-c3c(Cl)cc4c(N5CCCCCN5)nc(OC[C@@]56CCCN5C[C@H](F)C6)nc4c3F)c12 [Compound 42]	6.00 to 7.00	
C=Cc1cc2c(N3CCCCCN3)nc(OC[C@@]34CCCN3C[C@H](F)C4)nc2c(F)c1-c1ccc(F)c2sc(N)c(C#N)c12 [Compound 43]	> 7.00	
CCc1cc2c(N3CCCCCN3)nc(OC[C@@]34CCCN3C[C@H](F)C4)nc2c(F)c1-c1ccc(F)c2sc(N)c(C#N)c12 [Compound 44]	> 7.00	
CCc1c(F)ccc2cc(O)cc(-c3ncc4c(N5CCCCCN5)nc(OCC5(CN6CCOCC6)CC5)nc4c3F)c12 [Compound 46]	> 7.00	
C#Cc1c(F)ccc2cc(O)cc(-c3ncc4c(N5CCCCCN5)nc(OCC5(CN6CCCCC6)CC5)nc4c3F)c12 [Compound 47]	> 7.00	
N#Cc1c(N)sc2c(F)ccc(-c3c(C(F)(F)F)cc4c(N5CCCCCN5)nc(OC[C@@]56CCCN5C[C@H](F)C6)nc4c3F)c12 [Compound 48]	> 7.00	
CCc1c(F)ccc2cc(O)cc(N3CCc4c(nc(OC[C@@]56CCCN5C[C@H](F)C6)nc4N4CCCCCN4)C3)c12 [Compound 51]	> 7.00	
C#Cc1c(F)ccc2cc(O)cc(-c3ncc4c(N5CCCCCN5)nc(OCC5(CN6CCN(C)CC6)CC5)nc4c3F)c12 [Compound 52]	6.00 to 7.00	
C#Cc1c(F)ccc2cc(O)cc(-c3ncc4c(N5CCCCCN5)nc(OCC5(CN6CCCC6)CC5)nc4c3F)c12 [Compound 53]	6.00 to 7.00	
C#Cc1c(F)ccc2cc(O)cc(-c3c(C(F)(F)F)cc4c(N5CCCCCN5)nc(OC[C@@]56CCCN5C[C@H](F)C6)nc4c3F)c12 [Compound 54]		pIC50 [2, 5]: 6.00 to 7.00
C#Cc1c(F)ccc2cc(O)cc(-c3ncc4c(N5CCCC(F)(F)CN5)nc(OC[C@@]56CCCN5C[C@H](F)C6)nc4c3F)c12 [Compound 56]	> 7.00	
Oc1cc(-c2ncc3c(N4CCCCCN4)nc(OC[C@@]45CCCN4C[C@H](F)C5)nc3c2F)c2c(F)c(F)ccc2c1 [Compound 66]		pIC50 [2, 5]: > 7.00
C#Cc1c(F)ccc2cc(O)cc(-c3ncc4c(N5CC=CCN5)nc(OC[C@@]56CCCN5C[C@H](F)C6)nc4c3F)c12 [Compound 76]		pIC50 [2, 5]: 6.00 to 7.00
C#Cc1c(F)ccc2cc(OC(=O)N(C)C)cc(-c3ncc4c(N5CCCCCN5)nc(OC[C@@]56CCCN5C[C@H](F)C6)nc4c3F)c12 [Compound 89]		pIC50 ([2]; 144 h, Table 3, incubated for 6 days, read-out: IC50 (GP2D^l)): 6.00 to 7.00
C#Cc1c(F)ccc2cc(O)cc(-c3ncc4c(N5CCCCCN5)nc(OCC5(CN6CCC(OCC(=O)N[C@H](C(=O)N7C[C@H](O)C[C@H]7C(=O)N[C@@H](C)c7ccc(-c8scnc8C)cc7)C(C)(C)C)CC6)CC5)nc4c3F)c12 [Compound 108]		pIC50 ([2]; Table 3, incubated for 6 days, read-out: IC50 (GP2D^l)): > 7.00
